{
  "source": "patent US6649784B2",
  "about": "“Aspartyl dipeptide ester derivatives and sweeteners” (Ajinomoto Co., Inc., priority 1999, dated 2003)",
  "key": {"[1]": {"assay": "organoleptic (sensory) test of sweetening potency", "settings": "for Sweetening potency: value compared with a 4% sucrose aqueous solution", "excerpt": "For example, a sweetening potency of N-[N-[3-(3,4-dihydroxyphenyl)-3-methylbutyl]-L-α-aspartyl]-L-phenylalanine 1-methyl ester was approximately 50,000 times (relative to sugar), and a sweetening potency of N-[N-[3-(3,4,5-trihydroxyphenyl)propyl]-L-α-aspartyl]-L-phenylalanine 1-methyl ester was approximately 25,000 times (relative to sugar).\nThe structures and the results of the sensory test on some aspartyl dipeptide ester derivatives (represented by the following general formula (1)) formed are shown in Table 1."}, "[2]": {"settings": "times that of sucrose/sugar; reported in WO 94/11391 (b9: compared with 2, 5 and 10% sucrose solutions); cited from earlier work"}},
  "data": [
    {"smiles": "COC(=O)[C@H](Cc1ccccc1)NC(=O)[C@H](CC(=O)O)NCCCc1ccc(O)cc1O", "note": "[Compound 1, N-[N-[3-(2,4-dihydroxyphenyl)propyl]-L-α-aspartyl]-L-phenylalanine 1-methyl Ester]", "values": [
      {"measurement": "Sweetening potency (relative to sugar)", "setting": "[1]", "result": "10,000 times"},
      {"measurement": "Sweetening potency", "setting": "[1]", "result": 10000}
    ]},
    {"smiles": "COC(=O)[C@H](Cc1ccccc1)NC(=O)[C@H](CC(=O)O)NCCCc1ccc(O)c(O)c1O", "note": "[Compound 3, N-[N-[3-(2,3,4-trihydroxyphenyl)propyl]-L-α-aspartyl]-L-phenylalanine 1-methyl Ester]", "values": [
      {"measurement": "Sweetening potency (relative to sugar)", "setting": "[1]", "result": "10,000 times"},
      {"measurement": "Sweetening potency", "setting": "[1]", "result": 10000}
    ]},
    {"smiles": "COC(=O)[C@H](Cc1ccccc1)NC(=O)[C@H](CC(=O)O)NCCCc1ccc(O)c(OC)c1", "note": "[N-[N-[3-(3-methoxy-4-hydroxyphenyl)propyl]-L-α-aspartyl]-L-phenylalanine 1-methyl ester]", "values": [
      {"measurement": "sweetening potency (degree of sweetness)", "setting": "[2]", "result": "2,500 times"}
    ]},
    {"smiles": "COC(=O)[C@H](Cc1ccccc1)NC(=O)[C@H](CC(=O)O)NCCC(C)c1ccccc1", "note": "(mixture of isomers) [N-[N-[(RS)-3-phenylbutyl]-L-α-aspartyl]-L-phenylalanine 1-methyl ester]", "values": [
      {"measurement": "sweetening potency (degree of sweetness)", "setting": "[2]", "result": "1,200 times"}
    ]},
    {"smiles": "COC(=O)[C@H](Cc1ccccc1)NC(=O)[C@H](CC(=O)O)NCCC(C)(C)C", "note": "[N-[N-(3,3-dimethylbutyl)-L-α-aspartyl]-L-phenylalanine 1-methyl ester]", "values": [
      {"measurement": "sweetening potency (degree of sweetness)", "setting": "[2]", "result": "10,000 times"}
    ]},
    {"smiles": "COC(=O)[C@H](Cc1ccccc1)NC(=O)[C@H](CC(=O)O)NCCC(C)(C)c1ccc(O)c(O)c1", "note": "[Compound 5, N-[N-[3-(3,4-dihydroxyphenyl)-3-methylbutyl]-L-α-aspartyl]-L-phenylalanine 1-methyl Ester]", "values": [
      {"measurement": "Sweetening potency (relative to sugar)", "setting": "[1]; listed as Example 5", "result": "50,000 times"},
      {"measurement": "Sweetening potency (relative to sugar)", "setting": "[1]; listed as N-[N-[3-(3,4-dihydroxyphenyl)-3-methylbutyl]-L-α-aspartyl]-L-phenylalanine 1-met", "result": "approximately 50,000 times"},
      {"measurement": "Sweetening potency", "setting": "[1]", "result": 50000}
    ]},
    {"smiles": "COC(=O)[C@H](Cc1ccccc1)NC(=O)[C@H](CC(=O)O)NCCCc1cc(O)c(O)c(O)c1", "note": "[Compound 4, N-[N-[3-(3,4,5-trihydroxyphenyl)propyl]-L-α-aspartyl]-L-phenylalanine 1-methyl Ester]", "values": [
      {"measurement": "Sweetening potency (relative to sugar)", "setting": "[1]; listed as Example 4", "result": "25,000 times"},
      {"measurement": "Sweetening potency (relative to sugar)", "setting": "[1]; listed as N-[N-[3-(3,4,5-trihydroxyphenyl)propyl]-L-α-aspartyl]-L-phenylalanine 1-methyl e", "result": "approximately 25,000 times"},
      {"measurement": "Sweetening potency", "setting": "[1]", "result": 25000}
    ]},
    {"smiles": "COC(=O)[C@H](Cc1ccccc1)NC(=O)[C@H](CC(=O)O)NCCCc1ccc(O)c(O)c1", "note": "[Compound 2, N-[N-[3-(3,4-dihydroxyphenyl)propyl]-L-α-aspartyl]-L-phenylalanine 1-methyl Ester]", "values": [
      {"measurement": "Sweetening potency (relative to sugar)", "setting": "[1]", "result": "15,000 times"},
      {"measurement": "Sweetening potency", "setting": "[1]", "result": 15000}
    ]},
    {"smiles": "COC(=O)[C@H](Cc1ccccc1)NC(=O)[C@H](CC(=O)O)NCCCc1ccccc1", "note": "[N-[N-(3-phenylpropyl)-L-α-aspartyl]-L-phenylalanine 1-methyl ester]", "values": [
      {"measurement": "sweetening potency (degree of sweetness)", "setting": "[2]", "result": "1,500 times"}
    ]}
  ]
}
